Entries after “also recorded” stand apart in the source; their conditions may differ.
Key:
B16BL6 melanoma cells = assay: 3D collagen culture viability dose response, B16BL6; format: cell-based, murine; conditions: B16BL6, 3D collagen matrix
Procedure: (§4) Y-axis is the viability ratio where 1=100% viability, and 0=0% viability. The lines are non-linear fits, which are used to show the best fit curves. Those same fits are also used to calculate IC50 values. RMIC (where applicable) and DMSO are indicated as separate dots.
(§5) FIG. 1 panels A-F show the effect of SU11652 on BRAF V600E mutant (A375, M481) and BRAF-WT (M405, M498) as well as B16BL6 and B16F10 melanoma cells. The indicated cell line was cultured in collagen matrix to create physiologically relevant 3D culture conditions. The drug treatment was applied for 72 h and the response quantified. Three types of signal were measured using three different markers: apoptosis (CellEvent Caspase 3/7), permeabilized cell nuclei (ethidium homodimer), and all nuclei (Hoechst 33342) using an epifliorescence microscope. Each well of a 96-well plate was imaged at three different locations, with a z-step size of 2 μm for 251 steps to cover the entire height at that location. […] To resolve overlaps, we used the following precedence: permeabilization indicates cell death thus overwrites both other channels; in the absence of permeabilization, apoptosis marker overrides the Hoechst nuclear stain. These absolute pixel counts signal were converted to a relative viability signal by calculating the ratio of ethidium homodimer plus apoptosis signal to the total nuclear stain signal. […]

[1] = test system: BRAF and MEK inhibitor resistant (BRAFr/MEKr) A375 cells; assay: 3D viability dose response, BRAFr/MEKr A375; format: cell-based; conditions: A375 made resistant with Dabrafenib+Trametinib for approximately one month
Procedure: FIG. 7 panels A-D show the effect of SU11652 on BRAF and MEK inhibitor resistant (BRAFr/MEKr) melanoma cells. M481 and A375 cells were treated with 10 nM Dabrafenib+1 nM Trametinib (M481 and A375), or 100 nM Dabrafenib+10 nM Trametinib (M481 and A375) for approximately one month to make them resistant to the BRAF and MEK inhibitor (BRAFr/MEKr).

A375 melanoma cells = test system: A375 melanoma cells
Procedure: (§1) A375 cells were subcutaneously implanted at 3 million cells per mice with matrigel in the lower back of the mice. Once the tumors were palpable (150-200 mm^3), the mice were randomized and drug treatment was initiated. The mice were treated with vehicle control, 20 mg/kg sunitinib, 20 mg/kg SU11652, 50 mg/kg dabrafenib+0.5 mg/kg trametinib. The mice were treated with drugs daily for the duration of the experiment. Tumor sizes were assessed twice weekly using caliper measurement, and tumor volume was calculated using the formula (length×width^2×π)/6. Mice were euthanized when the tumor volume exceeded 1250 mm^3 or when necessary for animal welfare. The drug was dissolved in 0.5% w/v carboxymethylcellulose sodium, 1.8% w/v NaCl, 0.4% w/v Tween-80, 0.9% w/v benzyl alcohol. All mice were sacrificed before tumor weight exceeded 10% of body weight.
(§2) 6-8 week old Nod-Scid IL2Rγ KO mice (NSG) were implanted at a single subcutaneous site with 3×10^6 A375 or M405 melanoma cells (FIGS. 6 and 9, respectively) in matrigel (0.2 ml). When tumors reached approximately 150-200 mm^3 (day 11 post tumor cell implantation for A375 cells; day 21 post tumor cell implantation for […]), therapy was initiated. For A375 melanoma cells, treatment was with 20 mg/kg SU11652, 20 mg/kg Sunitinib, 50 mg/kg Debrafenib/0.5 mg/kg Trametinib or vehicle only (0.5% CMC/1.8% NaCl/0.4% Tween80/0.9% Benzyl Alcohol) at 0.2 ml/mouse PO qd. For M405 cells, treatment was with 20 mg/kg SU11652, 20 mg/kg Sunitinib or vehicle only (0.5% CMC/1.8% NaCl/0.4% Tween80/0.9% Benzyl Alcohol) at 0.2 ml/mouse PO qd. Compounds were administered as homogenous slurries after sonication (and heating at 60° C. for debrafenib/trametinib). Mice were weighed daily and tumors were measured with calipers twice weekly. Tumor volume was calculated as (L×W^2×pi)/6. When tumor volume reached >1250 mm^3 or if mice appeared moribund, they were euthanized and tumors immediately collected and snap frozen. […] All mice not previously euthanized were sacrificed on day 43 (A375 cells) or day 59 (M405 cells).
(§3) Tumor growth was evaluated as described in Evans (Evans et al., Cancer Immunol Res. 2015 June; 3(6):689-701). Time to endpoint (TTE) was determined by extrapolating the day on which tumors reached 1250 mm^3 from log-transformed tumor growth data sets. […] The median TTE was calculated for the group and tumor growth delay (TGD) defined as the increase in the median TTE in a treatment group compared to the control group, using the formula: % TGD=((T−C)/C)×[…]. […] The average % TGI was calculated for treatment days when all animals were still present. Mean tumor volumes±SEM were plotted and the difference between treated and control evaluated by Student's unpaired t-test (GraphPad QuickCalcs).

[2] = test system: BRAF WT M405 melanoma tumor cell model
Procedure: as §1, with “Cells” for “A375 cells”, “sunitinib and” for “sunitinib,”, “SU11652.” for “SU11652, 50 mg/kg dabrafenib+0.5 mg/kg trametinib.”
as §2, §3

B16F10 melanoma cells = assay: 3D collagen culture viability dose response, B16F10; format: cell-based, murine; conditions: B16F10, 3D collagen matrix
Procedure: as §4, §5

[3] = A375, 20 mg/kg PO daily, compared with sunitinib
[4] = M405, 20 mg/kg PO daily, compared with sunitinib

Question: Which “cytotoxic effect (viability ratio dose response)” value (B16BL6 melanoma cells) does the source give for `CCN(CC)CCNC(=O)c1c(C)[nH]c(/C=C2\C(=O)Nc3ccc(Cl)cc32)c1C` [SU11652, 5-[(Z)-(5-chloro-2-oxo-1,2-dihydro-3H-indol-3-ylidene)methyl]-N-[2-(diethylamino)ethyl]-2,4-dimethyl-1H-pyrrole-3-carboxamide] here?
Answer: broadly cytotoxic to melanoma cells

Question: What about the “effect on viability of resistant cells” value [1] of the same molecule?
Answer: worked effectively on BRAF- and MEK-inhibition resistant melanoma cells; also recorded: effective on these RAF/MEK dual inhibition resistant cells

Question: And the “average tumor growth inhibition” value (A375 melanoma cells; [3])?
Answer: better average tumor growth inhibition

Question: What about the tumor growth delay (A375 melanoma cells; [3]) of the same molecule?
Answer: greater tumor growth delay

Question: What about the time to endpoint (A375 melanoma cells; A375, 20 mg/kg PO daily, endpoint 1250 mm^3, compared with sunitinib) of the same molecule?
Answer: longer time to endpoint

Question: What about the “toxicity leading to weight loss” value (A375 melanoma cells; mouse, in vivo) of the same molecule?
Answer: did not incur a major toxicity that would lead to weight loss

Question: And the “average tumor growth inhibition” value [2, 4]?
Answer: better average tumor growth inhibition

Question: What about the tumor growth delay [2, 4] of the same molecule?
Answer: greater tumor growth delay

Question: What about the time to endpoint ([2]; M405, 20 mg/kg PO daily, endpoint 1250 mm^3, compared with sunitinib) of the same molecule?
Answer: longer time to endpoint

Question: What about the “toxicity leading to weight loss” value ([2]; mouse, in vivo) of the same molecule?
Answer: did not incur a major toxicity that would lead to weight loss

Question: And the “cytotoxic effect (viability ratio dose response)” value (B16F10 melanoma cells)?
Answer: broadly cytotoxic to melanoma cells

— US20230355581A1, “METHODS OF TREATMENT FOR MELANOMA” (THE BOARD OF REGENTS OF THE UNVERSITY OF TEXAS SYSTEM, priority 2020, published 2023)
